# Results: paper PMC8617627, “Novel DYRK1A Inhibitor Rescues Learning and Memory Deficits in a Mouse Model of Down Syndrome” (Pharmaceuticals, 2021)
# Like-named read-outs stand apart in the source and are kept apart here.
# Assays:
# Experiment in all cases: Kinase profile (33P ATP filter binding)
# Assay type in all cases: biochemical
# [1] = biological target: T1, NEK2a (Homo sapiens, UniProt P51955); settings: read-out: Remaining protein kinase activity
# T1 sequence (P51955 1-445): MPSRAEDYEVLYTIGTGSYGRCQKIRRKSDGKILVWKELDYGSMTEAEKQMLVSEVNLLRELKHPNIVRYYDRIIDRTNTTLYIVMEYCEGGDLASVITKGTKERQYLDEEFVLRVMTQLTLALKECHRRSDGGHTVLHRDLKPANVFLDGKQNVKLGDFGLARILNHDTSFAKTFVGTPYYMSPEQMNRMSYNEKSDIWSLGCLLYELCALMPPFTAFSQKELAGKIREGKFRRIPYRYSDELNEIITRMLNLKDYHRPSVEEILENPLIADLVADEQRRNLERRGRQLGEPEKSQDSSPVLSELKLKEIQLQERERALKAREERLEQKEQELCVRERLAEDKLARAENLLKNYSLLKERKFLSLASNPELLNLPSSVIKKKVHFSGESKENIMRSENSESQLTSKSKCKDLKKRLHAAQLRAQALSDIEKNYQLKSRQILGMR
# Experimental: (§1) The compounds were diluted to the appropriate concentration. The compounds were added to a “mother plate” consisting of samples, controls, and blanks. These serve as the source for “daughter plates” which are stored at −20 °C until assay initiation. Protein Kinases: Enzyme/Substrate mixture was added to the compound, and the compounds were incubated for five minutes at room temperature (RT). ^33P ATP was added to the compounds to initiate the assay. Orthophosphoric acid was added to the compounds to halt the assay. Assay components were harvested onto P81 filter plates, filter plates were air-dried, scintillation fluid was added to plates, and counts were read on a Topcount NXT. A mean percentage activity was calculated.
# [2] = biological target: T2, PDK1 (Homo sapiens, UniProt O15530); settings: read-out: Remaining protein kinase activity
# T2 sequence (O15530 1-556): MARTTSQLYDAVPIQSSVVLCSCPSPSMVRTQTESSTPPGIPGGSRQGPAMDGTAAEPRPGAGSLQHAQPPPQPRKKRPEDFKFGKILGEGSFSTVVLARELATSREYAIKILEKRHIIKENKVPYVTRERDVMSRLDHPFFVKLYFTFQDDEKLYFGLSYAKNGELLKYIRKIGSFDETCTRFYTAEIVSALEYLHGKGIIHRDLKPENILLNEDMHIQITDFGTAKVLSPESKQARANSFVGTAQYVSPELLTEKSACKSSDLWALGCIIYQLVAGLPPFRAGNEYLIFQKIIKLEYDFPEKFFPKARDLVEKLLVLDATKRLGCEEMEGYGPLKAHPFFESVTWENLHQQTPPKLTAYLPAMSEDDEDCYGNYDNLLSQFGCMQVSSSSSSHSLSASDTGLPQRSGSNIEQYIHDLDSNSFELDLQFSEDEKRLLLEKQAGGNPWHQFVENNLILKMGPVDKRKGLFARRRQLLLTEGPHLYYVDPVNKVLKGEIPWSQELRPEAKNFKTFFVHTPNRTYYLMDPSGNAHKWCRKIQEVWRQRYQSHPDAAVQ
# Experimental: as §1
# [3] = biological target: MELK (Homo sapiens, UniProt Q14680); settings: read-out: Remaining protein kinase activity
# Sequence of MELK (Q14680 whole entry): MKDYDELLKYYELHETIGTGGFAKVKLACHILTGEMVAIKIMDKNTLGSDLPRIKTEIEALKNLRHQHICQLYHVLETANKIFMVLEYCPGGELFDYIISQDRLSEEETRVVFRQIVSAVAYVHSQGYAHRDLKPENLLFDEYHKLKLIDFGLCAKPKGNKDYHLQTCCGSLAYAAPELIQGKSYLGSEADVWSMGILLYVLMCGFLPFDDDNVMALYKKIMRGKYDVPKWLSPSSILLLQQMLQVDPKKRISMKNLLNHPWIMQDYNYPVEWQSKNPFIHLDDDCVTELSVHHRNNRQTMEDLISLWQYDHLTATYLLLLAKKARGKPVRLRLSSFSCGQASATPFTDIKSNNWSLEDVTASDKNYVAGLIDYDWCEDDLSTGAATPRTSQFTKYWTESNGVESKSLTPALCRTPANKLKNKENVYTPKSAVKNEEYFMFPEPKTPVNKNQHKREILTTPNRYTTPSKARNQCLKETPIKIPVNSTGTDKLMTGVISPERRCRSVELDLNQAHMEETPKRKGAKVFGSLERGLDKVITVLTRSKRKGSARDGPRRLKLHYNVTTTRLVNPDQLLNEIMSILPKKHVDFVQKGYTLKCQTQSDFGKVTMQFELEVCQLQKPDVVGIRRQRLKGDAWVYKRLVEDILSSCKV
# Experimental: as §1
# [4] = biological target: JNK3 (Homo sapiens, UniProt P53779)
# Sequence of JNK3 (P53779 whole entry, species assumed): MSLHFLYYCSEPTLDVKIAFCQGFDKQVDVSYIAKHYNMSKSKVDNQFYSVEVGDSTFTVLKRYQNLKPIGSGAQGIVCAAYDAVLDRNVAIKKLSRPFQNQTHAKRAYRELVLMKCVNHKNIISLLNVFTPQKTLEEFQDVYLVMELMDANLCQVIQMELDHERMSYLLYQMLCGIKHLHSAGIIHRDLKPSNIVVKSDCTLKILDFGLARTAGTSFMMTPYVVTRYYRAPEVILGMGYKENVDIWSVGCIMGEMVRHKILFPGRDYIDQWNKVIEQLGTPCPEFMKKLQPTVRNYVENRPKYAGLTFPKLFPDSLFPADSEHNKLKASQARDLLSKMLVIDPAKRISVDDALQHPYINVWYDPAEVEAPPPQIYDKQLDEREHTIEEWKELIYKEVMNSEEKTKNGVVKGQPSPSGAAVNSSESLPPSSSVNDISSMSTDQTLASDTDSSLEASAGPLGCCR
# Experimental: as §1
# [5] = biological target: ERK2 (Homo sapiens, UniProt P28482); settings: read-out: Remaining protein kinase activity
# Sequence of ERK2 (P28482 whole entry, species assumed): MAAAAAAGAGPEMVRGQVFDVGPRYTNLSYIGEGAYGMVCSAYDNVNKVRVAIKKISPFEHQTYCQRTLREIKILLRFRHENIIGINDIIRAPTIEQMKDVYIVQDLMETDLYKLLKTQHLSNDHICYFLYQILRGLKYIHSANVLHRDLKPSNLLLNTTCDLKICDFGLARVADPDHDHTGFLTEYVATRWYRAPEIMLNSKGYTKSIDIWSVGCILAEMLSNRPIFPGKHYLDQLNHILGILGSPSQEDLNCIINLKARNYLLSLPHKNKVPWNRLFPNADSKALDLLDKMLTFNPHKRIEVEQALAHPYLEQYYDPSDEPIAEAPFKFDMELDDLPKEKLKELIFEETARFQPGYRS
# Experimental: as §1
# [6] = biological target: T3, EPH-B3 (Homo sapiens, UniProt P54753); settings: read-out: Remaining protein kinase activity
# T3 sequence (P54753 34-998): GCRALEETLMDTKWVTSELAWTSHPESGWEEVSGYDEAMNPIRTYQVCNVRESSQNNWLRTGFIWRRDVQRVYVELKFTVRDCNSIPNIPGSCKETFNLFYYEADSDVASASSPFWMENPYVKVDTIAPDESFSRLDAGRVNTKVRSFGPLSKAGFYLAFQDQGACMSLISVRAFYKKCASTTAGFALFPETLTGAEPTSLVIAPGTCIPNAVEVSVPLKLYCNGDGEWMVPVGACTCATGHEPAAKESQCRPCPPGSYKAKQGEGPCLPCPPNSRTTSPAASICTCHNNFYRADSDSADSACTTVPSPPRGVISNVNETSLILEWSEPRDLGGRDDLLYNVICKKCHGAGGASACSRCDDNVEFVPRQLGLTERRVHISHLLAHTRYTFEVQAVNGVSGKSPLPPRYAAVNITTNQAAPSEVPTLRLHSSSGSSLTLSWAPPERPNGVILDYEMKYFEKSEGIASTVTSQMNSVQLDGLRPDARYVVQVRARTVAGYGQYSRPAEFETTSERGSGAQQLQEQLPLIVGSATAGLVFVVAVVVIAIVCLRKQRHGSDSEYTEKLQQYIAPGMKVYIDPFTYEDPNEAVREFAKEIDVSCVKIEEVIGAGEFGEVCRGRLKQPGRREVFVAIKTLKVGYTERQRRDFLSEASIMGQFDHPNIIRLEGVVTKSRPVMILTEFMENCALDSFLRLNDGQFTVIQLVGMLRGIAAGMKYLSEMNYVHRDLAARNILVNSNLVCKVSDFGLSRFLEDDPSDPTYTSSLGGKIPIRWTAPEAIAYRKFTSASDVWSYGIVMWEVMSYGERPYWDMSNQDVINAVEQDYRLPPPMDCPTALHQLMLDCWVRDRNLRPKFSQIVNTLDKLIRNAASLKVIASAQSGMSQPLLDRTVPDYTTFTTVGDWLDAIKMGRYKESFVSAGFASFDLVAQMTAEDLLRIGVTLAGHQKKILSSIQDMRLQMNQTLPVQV
# Experimental: as §1
compound,measurement,setting,value
"COc1ccc2sc(-c3cncc(N)c3)nc2c1 [compound 1, 5-(5-Methoxybenzo[d]thiazol-2-yl)pyridin-3-amine]",remaining activity at 1 µM,"[1]; NEK2a, 1 μM",111%
same,remaining activity at 100 µM,"[1]; NEK2a, 100 μM",51%
same,remaining activity at 1 µM,"[2]; PDK1, 1 μM",104%
same,remaining activity at 100 µM,"[2]; PDK1, 100 μM",67%
same,remaining activity at 1 µM,"[3]; MELK, 1 μM",96%
same,remaining activity at 100 µM,"[3]; MELK, 100 μM",12%
same,Remaining protein kinase activity,[4]; 1 μM,125%
same,Remaining protein kinase activity,[4]; 100 μM,61%
same,remaining activity at 1 µM,"[5]; ERK2, 1 μM",102%
same,remaining activity at 100 µM,"[5]; ERK2, 100 μM",96%
same,remaining activity at 1 µM,"[6]; EPH-B3, 1 μM",130%
same,remaining activity at 100 µM,"[6]; EPH-B3, 100 μM",71%
"COc1ccc2sc(-c3cncc(NC(C)=O)c3)nc2c1 [PST-001, N-(5-(5-Methoxybenzo[d]thiazol-2-yl)pyridin-3-yl)acetamide]",remaining activity at 1 µM,[1],119%
same,remaining activity at 1 µM,[2],110%
same,remaining activity at 100 µM,[2],105%
same,remaining activity at 1 µM,[3],99%
same,remaining activity at 100 µM,[3],44%
same,Remaining protein kinase activity,[4]; 1 μM,127%
same,Remaining protein kinase activity,[4]; 100 μM,122%
same,remaining activity at 1 µM,[5],115%
same,remaining activity at 100 µM,[5],112%
same,remaining activity at 1 µM,[6],147%
same,remaining activity at 100 µM,[6],130%
